Assay results reported in patent US20170296568A1, “SIRTUIN GENE POTENTIATOR, AND PHARMACEUTICAL PRODUCT, COSMETIC PRODUCT, AND FOOD PRODUCT USING SAME” (MORISHITA JINTAN CO., LTD., priority 2012, published 2017).

system: hSIRT1 promoter; assay: Screening for SIRT1 enhancing polyphenol or terpenoid: hSIRT1 promoter activity (EGFP fluorescence) in Caco-2-hSIRT1p-EGFP cells; format: cell-based, human; details: 10 μM, 2 days after addition, relative ratio to control (PBS), FIG. 1
Text: First, the promoter region (−1593 to −1 bp) of hSIRT1 (human SIRT1) was acquired using the LA-PCR method using, as a template, a human genome DNA extracted from TIG-1 cells (obtained from Institute of Development, Aging and Cancer, Tohoku University), with primers synthesized based on reported information of the hSIRT1 genomic sequence so as to synthesize primers having added AseI and NheI recognition sequences at their respective ends (hSIRT1p-AseI (SEQ ID NO: 1) and hSIRT1p-NheI (SEQ ID NO: 2)). The PCR reaction condition was at 94° C. for 1 minute, followed by at 98° C. for 20 seconds; and at 68° C. for 2 minutes, 34 cycles; and then at 72° C. for 10 minutes for extension reaction. LA-Taq from Takara Shuzo Co., Ltd. was used as the TaqDNApolymerase. The primers were synthesized by Nippon EGT based on our request.
The hSIRT1 promoter fragment obtained by the LA-PCR was subjected to TA cloning using a pGEM-T Easy vector (manufactured by Promega KK). Furthermore, the base sequence thereof was confirmed by sequencing. The hSIRT1 promoter fragment, inserted into the pGEM-T Easy vector, was cut out by digestion with the restriction enzymes AseI and NheI, and the CMV promoter of a pEGFP-C3 (manufactured by Takara Bio Inc.) was removed by digestion with AseI and NheI in a similar manner, and the hSIRT1 promoter fragment was inserted into that removed site, so that phSIRT1p-EGFP was obtained.
Transfection was performed using a LIPOFECT AMINE 2000 REAGENT (manufactured by Life Technologies) according to its protocol. On the day before the transfection, Caco-2 cells (human colonic cancer-derived cells obtained from Riken BioResource Center) were plated at 1.0×10^6 in a 10-mL dish. On the day of the transfection, phSIRT1p-EGFP (10 μg) was diluted in a serum-free OPTI-MEM medium to a volume of 750 μL, after which 15 μL of LIPOFECT AMINE Reagent was diluted in a serum-free OPTI-MEM medium to […], and they were incubated at room temperature for 5 minutes. The transfection using the LIPOFECT AMINE Reagent was performed in the absence of serum, during which the culture medium of the Caco-2 cells plated on the previous day was removed, and was replaced by 5 mL of serum-free OPTI-MEM medium. After 30 minutes of this, 1.5 mL of DNA-LIPOFECT AMINE 2000 mixture was added to each 10-mL dish. After the addition, the dish was gently shaken to mix the DNA-LIPOFECT AMINE and the OPTI-MEM. After the culture for 3 hours, the DNA-LIPOFECT AMINE mixture solution was removed, and the medium was replaced by a serum-containing culture medium. Subsequently, culture was performed under the environment at 5% CO2/95% air and 37° C. for 21 hours, and the culture medium was replaced by a new one.
Since phSIRT1p-EGFP is resistant to the drug G418, the drug G418 was added to the transfected cells to 70 μg/mL to subject them to the drug selection for a week. The culture medium was replaced by a new one every three days, and G418 was added every time at the same concentration. Accordingly, Caco-2-hSIRT1p-EGFP cells were obtained.
Caco-2-hSIRT1p-EGFP cells were plated at 0.6×10^4 cells/well in a 96-well plate. On the next day, 10 μM polyphenol or terpenoid, or control (PBS) was added to each well. At 2 days after the addition, the culture solution was aspirated, after which 100 μL of 4% paraformaldehyde was added to each well, and the plate was allowed to stand at room temperature for 10 minutes. After the plate was allowed to stand for 10 minutes, 4% paraformaldehyde was aspirated, 100 μL of Cellstain (registered trademark)-Hoechst 33342 solution (Dojindo) diluted 1/500 with PBS was added to each well, and the plate was allowed to stand at room temperature in the dark for 15 minutes and the solution was then aspirated. Then, 100 μL of PBS was added to each well, and the fluorescence intensity was measured using an IN Cell Analyzer 1000 (GE Healthcare, Amersham Place, UK). The promoter activity was represented by a relative ratio to the activity of the control.

Question: With `O=c1c(O)c(-c2ccc(O)c(O)c2)oc2cc(O)ccc12` [fisetin] as the compound, how does the “relative hSIRT1 promoter activity” value read?
Answer: The value was “particularly strong hSIRT1 promoter enhancing activity”.

Question: For `O=c1oc2cc(O)ccc2c2ccc(O)cc12` [urolithin A], which “relative hSIRT1 promoter activity” value is on record?
Answer: Its value is “particularly strong hSIRT1 promoter enhancing activity”.

Question: Which “relative hSIRT1 promoter activity” value does the source give for `O=C1O[C@H]2[C@@H]3OC(=O)c4cc(O)c(O)c(O)c4-c4c(O)c(O)c5oc(=O)c6c(c(O)c(O)c7oc(=O)c4c5c76)-c4c(cc(O)c(O)c4O)C(=O)OC[C@H]3OC(O)[C@@H]2OC(=O)c2cc(O)c(O)c(O)c2-c2c1cc(O)c(O)c2O` (mixture of isomers) [punicalagin] here?
Answer: The value was “particularly strong hSIRT1 promoter enhancing activity”.

Question: `O=C1OC[C@H]2OC(O)[C@H](O)[C@@H](O)[C@@H]2OC(=O)c2cc(O)c(O)c(O)c2-c2c(O)c(O)c3oc(=O)c4c(c(O)c(O)c5oc(=O)c2c3c54)-c2c1cc(O)c(O)c2O` (mixture of isomers) [punicalin] was tested. Which “relative hSIRT1 promoter activity” value did it give?
Answer: The value was “particularly strong hSIRT1 promoter enhancing activity”.

Question: For `C[C@@]12C=Cc3occc3[C@H]1CC[C@@]13C[C@@H](CC[C@H]12)[C@@](O)(CO)C3` [kahweol], which “relative hSIRT1 promoter activity” value is on record?
Answer: The value was “particularly strong hSIRT1 promoter enhancing activity”.
